Measurements from ChEMBL document CHEMBL1135304, “Benzimidazole-based fXa inhibitors with improved thrombin and trypsin selectivity” (Bioorg Med Chem Lett, 2002).

Key:
[1] = target: Serine protease 1 (Homo sapiens, UniProt P07477); experiment: Tested in vitro for the selectivity against trypsin (Trp)
[2] = target: Prothrombin (Homo sapiens, UniProt P00734); experiment: Tested in vitro for the selectivity against thrombin (IIa)
[3] = target: Coagulation factor X (Homo sapiens, UniProt P00742); experiment: Tested in vitro for the inhibitory potency against Coagulation factor Xa
Chain of Coagulation factor X (P00742 41-179 limits assumed): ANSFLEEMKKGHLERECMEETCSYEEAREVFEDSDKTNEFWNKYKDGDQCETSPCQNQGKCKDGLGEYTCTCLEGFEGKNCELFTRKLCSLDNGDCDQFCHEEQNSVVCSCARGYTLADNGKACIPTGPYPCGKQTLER
Chain of Coagulation factor X (P00742 235-488 limits assumed): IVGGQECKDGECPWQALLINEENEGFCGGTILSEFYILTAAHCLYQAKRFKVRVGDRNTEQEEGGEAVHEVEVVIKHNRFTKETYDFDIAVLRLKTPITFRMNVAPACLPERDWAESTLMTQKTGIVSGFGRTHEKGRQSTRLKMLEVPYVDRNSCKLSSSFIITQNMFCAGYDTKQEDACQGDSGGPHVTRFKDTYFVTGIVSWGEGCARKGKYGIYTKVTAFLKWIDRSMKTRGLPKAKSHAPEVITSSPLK

Chain of Serine protease 1 (P07477 whole entry): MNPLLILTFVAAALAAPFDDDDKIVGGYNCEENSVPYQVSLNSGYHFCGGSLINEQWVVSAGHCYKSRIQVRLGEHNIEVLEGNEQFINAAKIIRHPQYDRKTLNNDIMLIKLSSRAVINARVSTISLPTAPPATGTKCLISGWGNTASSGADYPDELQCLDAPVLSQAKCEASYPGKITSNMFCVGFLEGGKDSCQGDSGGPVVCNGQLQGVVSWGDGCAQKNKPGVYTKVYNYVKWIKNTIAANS

Ki [1] [nM]	Ki [2] [nM]	Ki [3] [nM]	SMILES
5	2000		CCc1nc2cc(OC3CCN(C(C)=N)CC3)ccc2n1Cc1ccc2ccc(C(=N)N)cc2c1
15	> 5000	50	CCc1nc2c(N(CC(=O)O)CC(=O)O)c(OC3CCN(C(C)=N)CC3)ccc2n1Cc1ccc2ccc(C(=N)N)cc2c1
430	3600	150	CCc1nc2ccc(OC3CCN(C(C)=N)CC3)cc2n1Cc1cccc(-c2ccc(C(=N)N)cc2)c1
190	190	34	CCc1nc2ccc(OC3CCN(C(C)=N)CC3)cc2n1Cc1cccc(-c2cccc(C(=N)N)c2)c1
73	770	2.2	CCc1nc2ccc(OC3CCN(C(C)=N)CC3)cc2n1Cc1ccc(-c2cccc(C(=N)N)c2)cc1
690	> 5000	260	CCc1nc2cc(OC3CCN(C(C)=N)CC3)ccc2n1Cc1cccc(-c2ccc(C(=N)N)cc2)c1
150	1500	670	CCc1nc2cc(OC3CCN(C(C)=N)CC3)ccc2n1Cc1ccc(-c2ccc(C(=N)N)cc2)cc1
67	1120		CCc1nc2cc(OC3CCN(C(C)=N)CC3)ccc2n1Cc1cccc(-c2cccc(C(=N)N)c2)c1
24	3500	8	CCc1nc2c(N)c(OC3CCN(C(C)=N)CC3)ccc2n1Cc1ccc2ccc(C(=N)N)cc2c1
3	> 5000	0.2	CC(=N)N1CCC(Oc2ccc3c(nc(C(C)C)n3Cc3ccc4ccc(C(=N)N)cc4c3)c2[N+](=O)[O-])CC1
140	210	17	CCc1nc2cc(OC3CCN(C(C)=N)CC3)ccc2n1Cc1ccc(-c2cccc(C(=N)N)c2)cc1
10	> 5000	5	CCc1nc2c(N(C)C)c(OC3CCN(C(C)=N)CC3)ccc2n1Cc1ccc2ccc(C(=N)N)cc2c1
25	> 5000	50	CCc1nc2c(NC(C)=O)c(OC3CCN(C(C)=N)CC3)ccc2n1Cc1ccc2ccc(C(=N)N)cc2c1
3	> 5000		CC(=N)N1CCC(Oc2ccc3c(nc(C)n3Cc3ccc4ccc(C(=N)N)cc4c3)c2[N+](=O)[O-])CC1
5	3000	0.1	CCc1nc2c([N+](=O)[O-])c(OC3CCN(C(C)=N)CC3)ccc2n1Cc1ccc2ccc(C(=N)N)cc2c1

SMILES	Ki [1] [nM]	Ki [2] [nM]	Ki [3] [nM]
CCc1nc2ccc(OC3CCN(C(C)=N)CC3)cc2n1Cc1ccc(-c2ccc(C(=N)N)cc2)cc1	91	22	180
